Results from patent publication US7479507B2, “Anti-inflammatory substituted phenols and elastomeric compositions for oral delivery of drugs” (priority 2003, dated 2009).

Legend:
[1] = tested on: dogs diagnosed with arthritis or chronic or degenerative joint disease; assay: Owner-reported mobility of dogs with arthritis or chronic or degenerative joint disease, daily oral dosing, placebo-controlled; type: in vivo, dog
Experimental: The experiments below were performed on dogs after the informed consent of their owners was obtained. […] The specified compound was administered orally once a day with the dog's meal. […] The owners reported weekly any change in the ability of their dog to stand up, walk, run, climb and descend stairs, get on and off a bed, sofa, or chair, get into and out of a car, their limping and behavior.

[2] = tested on: rat; settings: cited from earlier work
[3] = tested on: rat; settings: cited from earlier work; remark: listed apart in the source
[4] = tested on: Chinese hamster; settings: cited from earlier work
[5] = tested on: rats; settings: >2.35 mg/l air aerosol, mostly (~80%) particles smaller than 7 μm; cited from earlier work
[6] = tested on: carp; settings: 0.3-3 ppm; cited from earlier work

Compound: CC(C(=O)O)c1ccc2c(c1)[nH]c1ccc(Cl)cc12 (stereo not shown) [Rimadyl®, reference compound]
- change in dog's condition ([1]; Example 9, 85 lb Labrador retriever, arthritis of the hips, Rimadyl alone before Compound 1): slightly improved the dog's condition

Compound: calcium salt of the monoethyl ester of (((3,5-bis(1,1-dimethylethyl)-4-hydroxyphenyl)methyl) phosphonic acid [Compound 1]
- oral LD50 [2]: exceeds 6000 mg/kg
- intraperitoneal LD50 [3]: 662 mg/kg
- oral LD50 [4]: exceeds 2000 mg/kg
- deaths after 4 hour inhalation [5]: no deaths
- change in dog's condition ([1]; Example 7, 33 lb Kelpie-mix, about 10 mg daily oral capsule, 4th week): condition continued to improve
- change in dog's condition ([1]; Example 7, 33 lb Kelpie-mix, about 10 mg daily oral capsule, after 2 weeks): moved smoothly, had less difficulty getting out of the car or off the sofa, ran better and more often, and was more active
- change in dog's condition ([1]; Example 7, 33 lb Kelpie-mix, about 10 mg daily oral capsule, after 3 weeks): freely getting off the bed, down from the sofa and out of the car
- change in dog's condition ([1]; Example 7, 33 lb Kelpie-mix, arthritis of shoulders and elbow, about 10 mg daily oral capsule, after 1 week): got down the sofa and out of the car more easily
- change in dog's condition ([1]; Example 8, 13 lb miniature Poodle, about 10 mg daily oral capsule, after 3 weeks): ran frequently and jumped up on the sofa without hesitation
- change in dog's condition ([1]; Example 8, 13 lb miniature Poodle, about 10 mg daily oral capsule, after 4 weeks): climbing and running freely
- change in dog's condition ([1]; Example 8, 13 lb miniature Poodle, unknown disease, about 10 mg daily oral capsule, after two weeks): climbed stairs with less hesitation and ran occasionally
- change in dog's condition ([1]; Example 9, 85 lb Labrador retriever, about 15 mg Compound 1 daily capsule and Rimadyl, after 1 week): stood up without assistance and limped less
- change in dog's condition ([1]; Example 9, 85 lb Labrador retriever, about 15 mg Compound 1 daily capsule and Rimadyl, after 3 weeks): started to move faster, then to run
- change in dog's condition ([1]; Example 9, 85 lb Labrador retriever, about 15 mg Compound 1 daily capsule and Rimadyl, after two weeks): moved faster and was not bothered by its hips
- change in dog's condition ([1]; Example 9, 85 lb Labrador retriever, about 15 mg Compound 1 daily capsule, Rimadyl discontinued, 4th week): got up and moved rapidly with ease and it's running improved
- change in dog's condition ([1]; Example 11, 62 lb Australian cattle dog, about 10 mg Compound 1 daily capsule, after 2 weeks): stood well, limped less, and climbed the 3 stairs to and from the house
- change in dog's condition ([1]; Example 11, 62 lb Australian cattle dog, about 10 mg Compound 1 daily capsule, after 3 weeks): trotted and climbed 5 stairs
- change in dog's condition ([1]; Example 11, 62 lb Australian cattle dog, about 10 mg Compound 1 daily capsule, after 4 weeks): condition was further improved
- change in dog's condition ([1]; Example 11, 62 lb Australian cattle dog, after 5 months untreated, about 10 mg Compound 1 daily capsule, after one week): stood longer, walked, and enjoyed the outdoors
- number of dogs for which improvement was evident ([1]; of 5 dogs given Compound 1): 4 dogs
- bioconcentration (accumulation) [6]: No bioconcentration (accumulation) was detected
